The target in one data set is Keap1/Nrf2 (Homo sapiens, UniProt Q14145). The experiment in a line: Inhibition of Nrf2-Keap1 Kelch domain (unknown origin) protein-protein interaction in presence of biotin labeled 16mer ETGE peptide AFFAQLQLDEETGEFL
It counts as protein assay.

Data set [1] in a line: Apparent permeability in human Caco-2 cells at 25 micromol/L incubated for 2 hrs by LC/MS/MS analysis. Format: ADME, cell-based. As to conditions: dose 25 µmol/L.
A further data set is described as follows: cells. As to conditions: Homo sapiens, HRMC, 18 h.
Data set [2] has as its target Kelch-like ECH-associated protein 1 (Homo sapiens) (UniProt Q14145). In words: Binding affinity to Keap1 Kelch domain (unknown origin) assessed as change in entropy by isothermal titration calorimetry assay.
Data set [3] shares this target.
Description: Binding affinity to Keap1 Kelch domain (unknown origin) assessed as change in free energy by isothermal titration calorimetry assay
Data set [4] has the same target. This is another data set of the same source.
Description: Binding affinity to Keap1 Kelch domain (unknown origin) assessed as change in enthalpy by isothermal titration calorimetry assay
Data set [5] is described as follows: Solubility of compound in FASSIF at pH 6.5 incubated for 4 hrs by LC/MS analysis. Format: ADME.
Data set [6] is described as follows: Solubility of compound in FeSSIF at pH 5 incubated for 4 hrs by LC/MS analysis. It counts as ADME.
Data set [7] is described as follows: Metabolic stability in human liver microsomes assessed as parent compound remaining at 5 uM measured after 60 mins. Format: ADME, Microsome. As to conditions: read-out: Stability.
Data set [8] can be described thus: Metabolic stability in rat liver microsomes assessed as parent compound remaining at 5 uM measured after 60 mins. It counts as ADME, Microsome. As to conditions: read-out: Stability.
Data set [9] can be described thus: MRT in CD(SD) rat at 1 mg/kg, iv measured upto 25 hrs. Format: ADME, organism-based. As to conditions: in vivo.
Data set [10] can be described thus: MRT in CD(SD) rat at 3 mg/kg, po measured upto 25 hrs. It counts as ADME, organism-based. As to conditions: in vivo.
Data set [11] is described as follows: Half life in CD(SD) rat at 1 mg/kg, iv measured upto 25 hrs. It counts as ADME, organism-based. As to conditions: in vivo.
A short description of data set [12]: Tmax in CD(SD) rat at 3 mg/kg, po measured upto 25 hrs. Format: ADME, organism-based. As to conditions: in vivo.
Data set [13] can be described thus: Total clearance in CD(SD) rat at 1 mg/kg, iv measured upto 25 hrs. Format: ADME, organism-based. As to conditions: in vivo.
Data set [14] is described as follows: Volume of distribution in CD(SD) rat at 1 mg/kg, iv measured upto 25 hrs. As to conditions: in vivo. Format: ADME, organism-based.
A short description of data set [15]: AUC in CD(SD) rat at 1 mg/kg, iv measured upto 25 hrs. It counts as ADME, organism-based. On the set-up: time < 25 hrs, dose 1 mg/kg, route iv. As to conditions: in vivo.
Data set [16] can be described thus: AUC in CD(SD) rat at 3 mg/kg, po measured upto 25 hrs. Also on record: time < 25 hrs, dose 3 mg/kg, route po. Format: ADME, organism-based. As to conditions: in vivo.
Data set [17] can be described thus: Oral bioavailability in CD(SD) rat at 3 mg/kg measured upto 25 hrs. Format: ADME, organism-based. As to conditions: in vivo.
The target in data set [18] is KEAP1/NRF2 (Rattus norvegicus) (UniProt O54968+P57790). In words: In vivo inhibition of Nrf2-Keap1 Kelch domain protein-protein interaction in po dosed Wistar rat kidney assessed as increase in HO-1 protein level incubated for 6 hrs by ELISA assay. Format: functional, organism-based. As to conditions: dose 3-30 mg/kg.

Each structure is given as a SMILES string. ≈ marks a conversion by molar mass, not a printed value.

The record followed here is ChEMBL document CHEMBL5257130, “Methyl and Fluorine Effects in Novel Orally Bioavailable Keap1-Nrf2 PPI Inhibitor” (ACS Med Chem Lett, 2023).

Kelch-like ECH-associated protein 1 (Homo sapiens), sequence (Q14145 whole entry, the tested form may be a part): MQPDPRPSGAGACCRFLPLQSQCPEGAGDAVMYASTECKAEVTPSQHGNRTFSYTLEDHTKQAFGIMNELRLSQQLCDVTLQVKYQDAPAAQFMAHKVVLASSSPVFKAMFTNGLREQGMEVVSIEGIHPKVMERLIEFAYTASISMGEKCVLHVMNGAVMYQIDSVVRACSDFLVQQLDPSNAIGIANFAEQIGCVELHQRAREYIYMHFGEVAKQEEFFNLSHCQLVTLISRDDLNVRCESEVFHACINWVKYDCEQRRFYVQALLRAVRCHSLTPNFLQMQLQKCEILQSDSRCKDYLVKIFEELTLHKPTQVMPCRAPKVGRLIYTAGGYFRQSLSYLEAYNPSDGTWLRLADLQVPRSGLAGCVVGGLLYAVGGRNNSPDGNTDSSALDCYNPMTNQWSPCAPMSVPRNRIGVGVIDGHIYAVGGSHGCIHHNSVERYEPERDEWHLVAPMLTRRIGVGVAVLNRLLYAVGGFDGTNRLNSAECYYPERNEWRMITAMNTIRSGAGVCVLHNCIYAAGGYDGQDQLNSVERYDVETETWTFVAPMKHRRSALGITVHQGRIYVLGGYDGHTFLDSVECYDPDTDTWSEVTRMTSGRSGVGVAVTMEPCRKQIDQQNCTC
Keap1/Nrf2, sequence (Q16236 whole entry, the tested form may be a part): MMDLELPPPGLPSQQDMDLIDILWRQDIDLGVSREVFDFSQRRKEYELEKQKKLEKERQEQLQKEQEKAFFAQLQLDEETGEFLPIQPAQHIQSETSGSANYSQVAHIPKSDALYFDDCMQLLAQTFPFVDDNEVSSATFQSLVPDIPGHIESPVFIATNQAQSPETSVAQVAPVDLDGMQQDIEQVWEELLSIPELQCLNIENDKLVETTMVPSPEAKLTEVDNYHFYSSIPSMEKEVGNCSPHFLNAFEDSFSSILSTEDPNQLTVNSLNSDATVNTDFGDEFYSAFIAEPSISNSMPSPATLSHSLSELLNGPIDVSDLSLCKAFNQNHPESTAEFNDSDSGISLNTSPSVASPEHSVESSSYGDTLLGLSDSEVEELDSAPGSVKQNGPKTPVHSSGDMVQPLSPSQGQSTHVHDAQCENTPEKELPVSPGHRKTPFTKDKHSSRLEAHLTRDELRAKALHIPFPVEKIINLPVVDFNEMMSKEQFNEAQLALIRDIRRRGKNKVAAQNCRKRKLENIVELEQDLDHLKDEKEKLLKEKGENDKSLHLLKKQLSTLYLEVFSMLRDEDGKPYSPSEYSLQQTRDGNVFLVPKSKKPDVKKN
Keap1/Nrf2, sequence (Q14145 whole entry, the tested form may be a part): as the sequence (Q14145 whole entry, the tested form may be a part) above
Description for cells: Upregulation of HO-1 expression in human HRMC cells incubated for 18 hrs by ELISA assay

As to `Cc1ccc([C@@H](NC(=O)C(=O)c2ccccc2)[C@@H](C)C(=O)O)cc1`, the half-inhibitory concentration (IC50) at Keap1/Nrf2 was over 100 µM. Besides, the Papp at 2 h, 25 µM in [1] is 1.7 ×10⁻⁶ cm/s.

For `Cc1ccc(C(NC(=O)Cc2ccc3c(c2)CCCC3)C2(C(=O)O)CC2)cc1` (stereo not given), the IC50 at Keap1/Nrf2 was determined as 54 µM.

For the compound `Cc1ccc([C@@H](NC(=O)Cc2ccccc2)[C@@H](C)C(=O)O)cc1`, the half-maximal inhibitory concentration (IC50) on Keap1/Nrf2 is 67 µM. Moreover, in [1], the apparent permeability coefficient (Papp) at 2 h, 25 µM was determined as 2.3 ×10⁻⁶ cm/s.

As for `Cc1ccc(C(NC(=O)Cc2ccc3c(c2)CCCC3)C(C)(C)C(=O)O)cc1` (stereo not given), the half-maximal inhibitory concentration (IC50) at Keap1/Nrf2 was determined as 17 µM.

Turning to `Cc1ccc([C@@H](NC(=O)C(F)(F)c2ccccc2)[C@@H](C)C(=O)O)cc1`, the 50% inhibitory concentration (IC50) on Keap1/Nrf2 worked out at 8.9 µM; in the data set “cells”, 66 µM. Besides, the Papp at 2 h, 25 µM in data set [1] is 15 ×10⁻⁶ cm/s.

As to `Cc1ccc([C@H](CC(=O)O)NC(=O)Cc2ccc3c(c2)CCCC3)cc1`, the IC50 at Keap1/Nrf2 is 39 µM. Also, the -TdeltaS in [2] is -2.2 kcal/mol. This compound displayed a deltaG in data set [3] of -6.7 kcal/mol. Besides, the deltaH in [4] was -4.5 kcal/mol.

For `Cc1ccc([C@@H](NC(=O)Cc2ccc3c(c2)CCCC3)[C@@H](C)C(=O)O)cc1`, the figures for the half-inhibitory concentration (IC50) at Keap1/Nrf2 and in the data set “cells” were 2.8 µM and 56 µM, respectively. In data set [1], the Papp at 2 h, 25 µM was determined as 25 ×10⁻⁶ cm/s. Further, the -TdeltaS in data set [2] was -3.7 kcal/mol. Also, in data set [3], the deltaG was -8 kcal/mol. The compound also showed a deltaH in data set [4] of -4.3 kcal/mol.

Take `Cc1ccc([C@@H](NC(=O)[C@@H](O)c2ccccc2)[C@@H](C)C(=O)O)cc1`: the IC50 on Keap1/Nrf2 came out at 96 µM. Further, the Papp at 2 h, 25 µM in data set [1] amounted to 0.26 ×10⁻⁶ cm/s.

For `Cc1ccc(C(CC(=O)O)NC(=O)Cc2ccc3c(c2)CCCC3)cc1` (stereo not given), the IC50 at Keap1/Nrf2 was 40 µM. The solubility at 4 h amounted to 432 µM (≈ 152 µg/mL) in data set [5] and 469 µM (≈ 165 µg/mL) in data set [6]. Besides, in data set [1], the Papp at 2 h, 25 µM turned out to be 17 ×10⁻⁶ cm/s. Further, the remaining at 1 h, 5 µM is 85% in [7] and 95% in data set [8].

Turning to `CC[C@@H](C(=O)O)[C@H](NC(=O)Cc1ccc2c(c1)CCCC2)c1ccc(C)cc1`, the concentration for half-maximal inhibition (IC50) on Keap1/Nrf2 came to 55 µM.

In the case of `Cc1ccc([C@@H](NC(=O)[C@H](F)c2ccccc2)[C@@H](C)C(=O)O)cc1`, the IC50 on Keap1/Nrf2 came to 90 µM. For the same compound, the Papp at 2 h, 25 µM in data set [1] was found to be 6.6 ×10⁻⁶ cm/s.

On to `COc1ccc(S(=O)(=O)Nc2ccc(N3CCCCCC3)cc2C(=O)O)cc1`, for which the 50% inhibitory concentration (IC50) at Keap1/Nrf2 turned out to be 37 µM. Moreover, the solubility at 4 h was at least 475 µM in [5] and 424 µM (≈ 172 µg/mL) in data set [6]. Further, the apparent permeability (Papp) at 2 h, 25 µM in [1] amounted to 13 ×10⁻⁶ cm/s. The remaining at 1 h, 5 µM in data set [7] and in data set [8] was 0% throughout.

For the compound `Cc1ccc([C@@H](NC(=O)[C@H](O)c2ccccc2)[C@@H](C)C(=O)O)cc1`, the IC50 at Keap1/Nrf2 was over 100 µM. For the same compound, in data set [1], the Papp at 2 h, 25 µM came out at 0.27 ×10⁻⁶ cm/s.

Regarding `Cc1ccc([C@@H](NC(=O)[C@@H](F)c2ccccc2)[C@@H](C)C(=O)O)cc1`, the IC50 at Keap1/Nrf2 was determined as 3.5 µM; in “cells”, 36 µM. For the same compound, the Papp at 2 h, 25 µM in [1] worked out at 12 ×10⁻⁶ cm/s.

In the case of `Cc1ccc([C@@H](NC(=O)[C@@H](F)c2ccc3c(c2)CCCC3)[C@@H](C)C(=O)O)cc1`, the figures for the IC50 on Keap1/Nrf2 and in the data set “cells” were 0.089 µM and 2 µM, respectively. Further, the values for the solubility at 4 h in data set [5] and in [6] were at least 475 µM and 303 µM (≈ 116 µg/mL), respectively. Further, the apparent permeability coefficient (Papp) at 2 h, 25 µM in data set [1] is 33 ×10⁻⁶ cm/s. In addition, the remaining at 1 h, 5 µM in [7] worked out at 70%; in data set [8], 87%. Also, the -TdeltaS in data set [2] was -1.2 kcal/mol. For the same compound, the mean residence time MRT in [9] stood at 5.6 h; in [10], 10 h. For the same compound, the half-life in data set [11] is 4.5 h. In addition, the Tmax in data set [12] was 1.3 h. The same compound gave a clearance in data set [13] of 0.5 mL/min/kg. This compound displayed a Vd in data set [14] of 0.18 L/kg. In addition, the exposure (AUC) at 25 h is 79 µM·h in data set [15] and 324 µM·h in [16]. Also, the bioavailability in data set [17] was 136%. For the same compound, the inhibition result in data set [18] was “Dose-Dependent Effect”.

For the compound `CC[C@H](C(=O)O)[C@H](NC(=O)Cc1ccc2c(c1)CCCC2)c1ccc(C)cc1`, the IC50 at Keap1/Nrf2 turned out to be 99 µM.

Turning to `Cc1ccc([C@@H](CC(=O)O)NC(=O)Cc2ccc3c(c2)CCCC3)cc1`, the IC50 at Keap1/Nrf2 is over 100 µM.

Turning to `Cc1ccc([C@@H](NC(=O)Cc2ccc3c(c2)CCCC3)[C@H](C)C(=O)O)cc1`, the 50% inhibitory concentration (IC50) on Keap1/Nrf2 was 51 µM.

For the compound `CO[C@@H](C(=O)N[C@H](c1ccc(C)cc1)[C@@H](C)C(=O)O)c1ccccc1`, the IC50 on Keap1/Nrf2 was 83 µM.

On to `CO[C@H](C(=O)N[C@H](c1ccc(C)cc1)[C@@H](C)C(=O)O)c1ccccc1`, for which, on Keap1/Nrf2, the IC50 was over 100 µM. Moreover, the apparent permeability (Papp) at 2 h, 25 µM in data set [1] is 3.4 ×10⁻⁶ cm/s.
